Data from PMC7395068, “The evolution of strategies to minimise the risk of human drug-induced liver injury (DILI) in drug discovery and development” (Archives of Toxicology, 2020).
Where two headings read alike, the source gives them in different places.

Columns and labels:
HepG2 cells [1] = settings: cited from earlier work
hLiMTs [2] = settings: cited from earlier work
[3] = plasma free fraction; cited from earlier work
[4] = cited from earlier work
[5] = cited from earlier work; remark: listed apart in the source
HepG2 cells [6] = settings: cited from earlier work; remark: listed apart in the source
[7] = test system: THLE or HepG2 cells, isolated mitochondria, BSEP; settings: cited from earlier work
[8] = test system: HepG2 cells, primary human hepatocytes; settings: cited from earlier work
Upcyte human hepatocytes = settings: cited from earlier work
human hepatocytes = settings: cited from earlier work
hLiMTs [9] = test: Combined HCI (HCS) and cellular ATP 3D assay in hLiMTs; settings: for AC50 / minimal effective concentration: Homo sapiens
[10] = cited from earlier work; remark: listed apart in the source
PHH = settings: cited from earlier work
[11] = Plasma free fraction (fu) and unbound Cmax (Cmax,u); assay type: in vitro ADME, human
Procedure: The prediction of DILI severity was evaluated further using the 3D combined HCI assays using plasma-free fraction. The majority of fu values were obtained from literature, when unavailable in-house prediction was utilised. Unbound plasma Cmax concentrations (Cmax,u) were derived by multiplying total plasma Cmax with the corresponding free fraction (fu) for each compound.

PHH spheroids = settings: cited from earlier work
[12] = cited from earlier work; remark: listed apart in the source
rBsep = settings: cited from earlier work
[13] = test system: THLE-Null and THLE-3A4 cells; settings: cited from earlier work
HepaRG spheroids [14] = test: Combined HCI (HCS) and cellular ATP 3D assay in HepaRG spheroids; settings: for AC50 / minimal effective concentration: Homo sapiens
[15] = test system: HepG2 C3A spheroid, BSEP, Glu/Gal in HepG2 cells, bioactivation; settings: cited from earlier work
[16] = test system: primary human hepatocytes, NIH3T3 fibroblasts, BSEP, CYP3A4; settings: cited from earlier work
hLiMTs [17] = test system: hLiMTs
HepaRG spheroids [18] = test system: HepaRG spheroids
[19] = In vitro Assay, ref Proctor 2017
[20] = Modeled in vitro assays (cytotoxicity, mitochondrial dysfunction, BSEP), ref Aleo et al. 2019
[21] = Microtissue model structural based (HCI), combined HCS and ATP, MEC < 25 × Cmax.tot cut-off
[22] = In vitro Assay, ref Dawson 2012
[23] = In vitro Assay, ref Gustafsson 2014
[24] = HepaRG, read-out: ATP endpoint AC50
[25] = HepaRG, read-out: ATP endpoint MEC
[26] = HepaRG, read-out: HCS endpoint AC50
[27] = HepaRG, read-out: HCS endpoint MEC

Cn1cnc([N+](=O)[O-])c1Sc1ncnc2nc[nH]c12 [azathioprine]
Structural based (HCI) (HepG2 cells [1]; In vitro Assay, ref O'Brien 2006): +VE | DILI in vitro assay prediction, O'Brien (2006) (HepG2 cells [1]; Structural based (HCI), HepG2, ref O'Brien et al. 2006): +VE (lowest HCI endpoint IC50 (or in the absence of dose–response < 100 µM) < 30 × total human plasma exposure levels (Cmax.tot)) | hLiMTs ATP <100uM (hLiMTs [2]; [19]): +VE (IC50 threshold of 100 µM) | hLiMTs/100xCmax, Proctor (2017) (hLiMTs [2]; hLiMTs, ATP, IC50 < 100 × Cmax.tot, ref Proctor et al. 2017): +VE (IC50 < 100 × Cmax.tot) | hLiMTs/100uM, Proctor (2017) (hLiMTs [2]; hLiMTs, ATP, IC50 threshold 100 µM, ref Proctor et al. 2017): +VE (IC50 threshold of 100 µM) | fu [3]: 0.700 | Cmax ([4]; read-out: Human plasma Cmax, total plasma Cmax.tot, median of 9 literature references): 7210 nM | DILI Score (FDA) (1-8) ([5]; ref Chen 2011): 3 | Structural based (HCI) (HepG2 cells [6]; In vitro Assay, ref Tolosa 2012): +VE | DILI in vitro assay prediction, Tolosa (2012) (HepG2 cells [6]; Structural based (HCI), HepG2, ref Tolosa et al. 2012): +VE | Partition Hybrid HRM Score ([7]; In vitro Assay, ref Aleo 2019): -VE | Ro2 Hybrid HRM Score ([7]; In vitro Assay, ref Aleo 2019): +VE | Partition Hybrid HRM Score ≥4, Aleo (2019) [7, 20]: -VE | Partition Hybrid HRM Score ≥8, Aleo (2019) [7, 20]: -VE | Rule of Two hybrid HRM Score ≥3, Aleo (2019) [7, 20]: +VE (Rule of Two hybrid HRM Score ≥3) | Rule of Two hybrid HRM Score ≥8, Aleo (2019) [7, 20]: -VE | Cluster 1-6 +VE Assay ([8]; In vitro Assay, ref Garside 2014): -VE | Upcytes multi donor assay 14day data (Upcyte human hepatocytes; In vitro Assay, ref Tolosa 2019): +VE | Structural based (HCI) (human hepatocytes; In vitro Assay, ref Xu 2008): +VE | DILI in vitro assay prediction, Xu (2008) (human hepatocytes; Structural based (HCI), human hepatocytes, ref Xu et al. 2008): +VE | AC50 (hLiMTs [9]; read-out: ATP endpoint AC50): 1.18 µM | minimal effective concentration (hLiMTs [9]; read-out: ATP endpoint MEC): 0.361 µM | AC50 (hLiMTs [9]; read-out: HCS endpoint AC50): 41.6 µM | minimal effective concentration (hLiMTs [9]; read-out: HCS endpoint MEC): 1.58 µM | DILI prediction hLiMTs (HCS-MEC) (hLiMTs [9]; [21]): +VE (MEC < 25 × Cmax.tot cut-off) | hLiMTs <25x Avg Cmax ATP (hLiMTs [9]; hLiMTs, ATP endpoint, cut-off <25x Avg Cmax): +ve | hLiMTs <100x Avg Cmaxu ATP (hLiMTs [9]; hLiMTs, ATP endpoint, cut-off <100x Avg Cmaxu): +ve (<100x Avg Cmaxu) | hLiMTs <25x Avg Cmax HCS (hLiMTs [9]; hLiMTs, HCS endpoints, cut-off <25x Avg Cmax): +ve | hLiMTs <100x Avg Cmaxu HCS (hLiMTs [9]; hLiMTs, HCS endpoints, cut-off <100x Avg Cmaxu): +ve (<100x Avg Cmaxu) | hLiMTs <25x Avg Cmax All (hLiMTs [9]; hLiMTs, all endpoints (ATP and HCS), cut-off <25x Avg Cmax): +ve | hLiMTs Cmax max All (hLiMTs [9]; hLiMTs, all endpoints, Cmax max used): +ve | hLiMTs Cmax min All (hLiMTs [9]; hLiMTs, all endpoints, Cmax min used): +ve | hLiMTs <10 uM All (hLiMTs [9]; hLiMTs, all endpoints, cut-off <10 uM): +ve (<10 uM) | hLiMTs <100x Avg Cmaxu All (hLiMTs [9]; hLiMTs, all endpoints, cut-off <100x Avg Cmaxu): +ve (<100x Avg Cmaxu) | DILI severity category (Chen et al. [2016]) ([10]; LTKB DILIrank category, ref Chen et al. 2016): Most | DILI severity category (Chen 2016) ([10]; human DILI classification, LTKB DILIrank, ref Chen et al. 2016): Most | DILI severity category ([10]; human DILI severity, ref Chen et al.): Most | DILI +VE (5-8), DILI -VE (-4) ([10]; ref Chen 2016): +VE | DILI severity category ([10]; ref Chen 2016): vMost-DILI-Concern | PHH/100xCmax, Proctor (2017) (PHH; 2D PHH, ATP, IC50 < 100 × Cmax.tot, ref Proctor et al. 2017): -VE | PHH/100uM, Proctor (2017) (PHH; 2D PHH, ATP, IC50 threshold 100 µM, ref Proctor et al. 2017): -VE | PHH ATP <100uM (PHH; [19]): -VE | Human plasma Cmax,u ([11]; unbound plasma Cmax): 5048 nM | hLiMTs ATP <20 x Cmax (PHH spheroids; In vitro Assay, ref Vorrink 2018): +VE (IC20 < 20 × Cmax.tot cut-off) | DILI in vitro assay prediction, Vorrink (2018) (PHH spheroids; PHH spheroids, ATP, 14 days, IC20 < 20 × Cmax.tot, ref Vorrink et al. 2018): +VE (IC20 < 20 × Cmax.tot cut-off) | Assigned DILI category ([12]; Chen et al. 2016 or literature alignment, ref Chen et al. 2016): 3 | In vivo DILI ([12]; […]): +VE | In vivo DILI ([12]; ref Aleo 2019): +VE | In vivo DILI ([12]; ref Dawson 2012): +VE | In vivo DILI ([12]; ref Garside 2014): +VE | In vivo DILI ([12]; ref Gustafsson 2014): +VE | In vivo DILI ([12]; ref O'Brien 2006): +VE | In vivo DILI ([12]; ref Proctor 2017): +VE | In vivo DILI ([12]; ref Tolosa 2012): +VE | In vivo DILI ([12]; ref Tolosa 2019): +VE | In vivo DILI ([12]; ref Vorrink 2018): +VE | In vivo DILI ([12]; ref Xu 2008): +VE | Inhibition of rBsep cutoff<1& cmax u>.2 (rBsep; [22]): -VE | Inhibition of rBsep cutoff<3 (rBsep; [22]): -VE | THLE-Null [13, 23]: -VE | THLE-Null/3A4 [13, 23]: -VE | HepaRG <25x Avg Cmax ATP (HepaRG spheroids [14]; HepaRG, ATP endpoint, cut-off <25x Avg Cmax): +ve | HepaRG <100x Avg Cmaxu ATP (HepaRG spheroids [14]; HepaRG, ATP endpoint, cut-off <100x Avg Cmaxu): +ve (<100x Avg Cmaxu) | HepaRG <25x Avg Cmax HCS (HepaRG spheroids [14]; HepaRG, HCS endpoints, cut-off <25x Avg Cmax): +ve | HepaRG <100x Avg Cmaxu HCS (HepaRG spheroids [14]; HepaRG, HCS endpoints, cut-off <100x Avg Cmaxu): +ve (<100x Avg Cmaxu) | HepaRG <25x Avg Cmax All (HepaRG spheroids [14]; HepaRG, all endpoints (ATP and HCS), cut-off <25x Avg Cmax): +ve | HepaRG Cmax max All (HepaRG spheroids [14]; HepaRG, all endpoints, Cmax max used): +ve | HepaRG Cmax min All (HepaRG spheroids [14]; HepaRG, all endpoints, Cmax min used): +ve | HepaRG <10 uM All (HepaRG spheroids [14]; HepaRG, all endpoints, cut-off <10 uM): +ve (<10 uM) | HepaRG <100x Avg Cmaxu All (HepaRG spheroids [14]; HepaRG, all endpoints, cut-off <100x Avg Cmaxu): +ve (<100x Avg Cmaxu) | AC50 (HepaRG spheroids [14]; [24]): 0.48 µM | minimal effective concentration (HepaRG spheroids [14]; [25]): 0.278 µM | AC50 (HepaRG spheroids [14]; [26]): 2 µM | minimal effective concentration (HepaRG spheroids [14]; [27]): 0.0805 µM | DILI prediction HepaRG spheroids (HCS-MEC) (HepaRG spheroids [14]; [21]): +VE (MEC < 25 × Cmax.tot cut-off)

Nc1c2c(nc3ccccc13)CCCC2 [tacrine, reference compound]
Structural based (HCI) (HepG2 cells [1]): -VE | Cmax ([4]; human, in vivo): 80 nM | DILI Score (FDA) (1-8) ([5]; in vivo): 7 | Ro2 Hybrid HRM Score [7]: +VE | Rule of Two hybrid HRM Score ≥8, Aleo (2019) [7]: -VE | Cluster 1-6 +VE Assay [8]: +VE | Bayesian Machine Learning [15]: +VE | Bayesian Machine Learning DILI prediction, Williams (2019) [15]: +VE | Cellular toxicity (3T3 cells) [16]: -VE | Combined Assay [16]: +VE | DILI in vitro assay prediction, Schadt (2015) [16]: +VE | GSH adduct HML [16]: +VE | Hepatocyte cellular toxicity [16]: -VE | MitoTox 3T3 [16]: -VE | TDI CYP3A4 [16]: -VE | hBSEP inhibition [16]: -VE | Upcytes multi donor assay 14day data (Upcyte human hepatocytes): +VE | DILI in vitro assay prediction, Xu (2008) (human hepatocytes): -VE | Structural based (HCI) (human hepatocytes): -VE | AC50 (hLiMTs [9]; read-out: ATP endpoint AC50): 41.8 µM | minimal effective concentration (hLiMTs [9]; read-out: ATP endpoint MEC): 44.7 µM | AC50 (hLiMTs [9]; read-out: HCS endpoint AC50): 52.4 µM | minimal effective concentration (hLiMTs [9]; read-out: HCS endpoint MEC): 38.5 µM | PHH ATP <100uM (PHH): -VE | PHH/100uM, Proctor (2017) (PHH): -VE | Human plasma Cmax,u ([11]; human): 36 nM | DILI in vitro assay prediction, Vorrink (2018) (PHH spheroids): -VE | Assigned DILI category ([12]; in vivo): 2 | Inhibition of rBsep cutoff<3 (rBsep; [22]): -VE | Inhibition of rBsep cutoff<1& cmax u>.2 (rBsep): -VE | THLE-Null [13]: -VE | AC50 (HepaRG spheroids [14]; [24]): 51.8 µM | minimal effective concentration (HepaRG spheroids [14]; [25]): 45.3 µM | AC50 (HepaRG spheroids [14]; [26]): 65.6 µM | minimal effective concentration (HepaRG spheroids [14]; [27]): 48.7 µM | hLiMTs <10 uM All (hLiMTs [17]): -ve | hLiMTs <100x Avg Cmaxu ATP (hLiMTs [17]; human): -ve | hLiMTs <100x Avg Cmaxu All (hLiMTs [17]; human): -ve | hLiMTs <100x Avg Cmaxu HCS (hLiMTs [17]; human): -ve | hLiMTs Cmax max All (hLiMTs [17]; human): -ve | hLiMTs Cmax min All (hLiMTs [17]; human): -ve | HepaRG <10 uM All (HepaRG spheroids [18]): -ve | HepaRG <100x Avg Cmaxu ATP (HepaRG spheroids [18]; human): -ve | HepaRG <100x Avg Cmaxu All (HepaRG spheroids [18]; human): -ve | HepaRG <100x Avg Cmaxu HCS (HepaRG spheroids [18]; human): -ve | HepaRG Cmax max All (HepaRG spheroids [18]; human): -ve | HepaRG Cmax min All (HepaRG spheroids [18]; human): -ve
